The test system of one data set is Serum cholesterol. The experiment in a line: Serum cholesterol of rabbits fed a cholesterol rich diet. In kind it is in vivo. The conditions noted are these: 200 mg/day with cholesterol rich diet.
Data set [1] can be described thus: Acute oral toxicity, LD50 (Table 2). The conditions noted are these: in vivo, mouse, P.O. The method, then:
The extremely low toxicities of the present acid-amide compounds are illustrated in Table 2, in which the acute toxicities of some of the present compounds in mice are listed.
As is seen from Table 2, no fatal case and no significant toxic symptoms were observed even in such large doses (per os) as 0.5 g. per 10 g., namely 50 g./kg. of the body weight. Also, no significant toxic symptoms, or fatal cases, were observed when the amides in amounts of 1, 0.5 or 0.2% in the diet were administered to mice everyday for three weeks. The appetite was normal and digestive functions were unchanged. When the internal organs were inspected by dissection, there was no appreciable change.

The next data set has as its system Rabbit serum cholesterol. The data set can be described thus: Rabbit serum cholesterol lowering ratio after 9 weeks. The data set is classed as in vivo. The conditions noted are these: control 0%.

Structures are written as SMILES.

By LD50 is commonly meant the dose at which mortality reaches 50%. A lower LD50 goes with greater toxicity.

For `CCCCC/C=C\C/C=C\CCCCCCCC(=O)N(C1CCCCC1)C1CCCCC1` [N,N-dicyclohexyl linoleamide], the Serum cholesterol was 250 mg. % in the data set on Serum cholesterol (2 weeks, control 250); 120 mg. % with Serum cholesterol (4 weeks, control 563); 62 mg. % in the data set with Serum cholesterol (6 weeks, control 890); 62 mg. % in the data set with Serum cholesterol (8 weeks, control 1150); 65 mg. % in the data set on Serum cholesterol (10 weeks, control 1750).

For `CCCCC/C=C\C/C=C\CCCCCCCC(=O)NC(Cc1ccccc1)c1ccccc1` (stereo not shown), in data set [1], the LD50 was over 50000 mg/kg.

Regarding `CCCCC/C=C\C/C=C\CCCCCCCC(=O)NC(C)c1ccccc1` (stereo not shown) [drawing 144], the Serum cholesterol in the data set with Serum cholesterol (2 weeks, control 250) was determined as 250 mg. %; with Serum cholesterol (4 weeks, control 563) it was 130 mg. %; in the data set with Serum cholesterol (6 weeks, control 890), 65 mg. %; in the data set with Serum cholesterol (8 weeks, control 1150), 60 mg. %; with Serum cholesterol (10 weeks, control 1750) it was 52 mg. %.

`CCCCC/C=C\C/C=C\CCCCCCCC(=O)NC12CC3CC(CC(C3)C1)C2` [drawing 140] showed an LD50 in data set [1] of over 50000 mg/kg.

As to `CCCCC/C=C\C/C=C\CCCCCCCC(=O)NC(C)c1ccccc1` (stereo not shown) [drawing 136], the LD50 in data set [1] was over 50000 mg/kg.

Consider `CCCCC/C=C\C/C=C\CCCCCCCC(=O)NC(C)c1ccc(C)cc1` (stereo not shown) [drawing 145], for which the “Rabbit serum cholesterol Towering ratio (after 9 weeks)” value in the data set on Rabbit serum cholesterol (100 mg/kg/day) is listed as 60.1%.

In data set [1], `CCCCC/C=C\C/C=C\CCCCCCCC(=O)NC(C)c1ccc(C)cc1` (stereo not shown) [drawing 138] came in with an LD50 of over 50000 mg/kg.

For `CC[C@H](CC[C@@H](C)[C@H]1CC[C@H]2[C@@H]3CC=C4C[C@@H](O)CC[C@]4(C)[C@H]3CC[C@]12C)C(C)C` [β-Sitosterol, reference compound], the Serum cholesterol in the data set with Serum cholesterol (2 weeks, control 250) is on record as 250 mg. %; in the data set on Serum cholesterol (4 weeks, control 563), 438 mg. %; in the data set with Serum cholesterol (6 weeks, control 890) it was 875 mg. %; in the data set on Serum cholesterol (8 weeks, control 1150) it was 1063 mg. %; with Serum cholesterol (10 weeks, control 1750), 1200 mg. %. Besides, in the data set on Rabbit serum cholesterol (800 mg/kg/day), the “Rabbit serum cholesterol Towering ratio (after 9 weeks)” value is given as 21.2%.

Take `CCCCC/C=C\C/C=C\CCCCCCCC(=O)NC(C)c1ccc(Cl)c(Cl)c1` (stereo not shown) [drawing 148]: the “Rabbit serum cholesterol Towering ratio (after 9 weeks)” value with Rabbit serum cholesterol (100 mg/kg/day) came to 61.5%.

As for `CC/C=C\C/C=C\C/C=C\CCCCCCCC(=O)NC(C)c1ccccc1C` (stereo not shown) [drawing 151], the “Rabbit serum cholesterol Towering ratio (after 9 weeks)” value with Rabbit serum cholesterol (100 mg/kg/day) is on record as 54.5%.

Regarding `CCCCC/C=C\C/C=C\CCCCCCCC(=O)NC(C)c1ccc(Cl)cc1` (stereo not shown) [drawing 147], in the data set on Rabbit serum cholesterol (100 mg/kg/day), the “Rabbit serum cholesterol Towering ratio (after 9 weeks)” value came to 80.1%.

`CCCCC/C=C\C/C=C\CCCCCCCC(=O)NC(CC)c1ccc(C)cc1` (stereo not shown) [drawing 146]: in the data set with Rabbit serum cholesterol (100 mg/kg/day), the “Rabbit serum cholesterol Towering ratio (after 9 weeks)” value is listed as 59.2%.

The values are drawn from US3995059A, “Pharmaceutical compositions containing fatty acid amide derivatives” (Sumitomo Chemical Company, Limited, priority 1966, dated 1976).
